In patent US20240207414A1, “DISULFIDE-BASED PRODRUG COMPOUND” (Ludwig-Maximilians-Universitat Munchen, priority 2021, published 2024):

What was measured:
[1] = Chemical reductant assay: DTT challenge (cell-free); format: physicochemical; settings: aq. TE buffer pH 7.4, 37° C., 6 h
From the text: This assay (see FIG. 1) examined the stability of disulfide-based reduction-triggered compounds of the invention when exposed to monothiol reductants, primarily the major physiological cellular monothiol GSH, and dithiol reductants like the disulfide reductant dithiothreitol (DTT), as evaluated in a cell-free assay, to determine whether these compounds can be useful for selective release.
Assay Conditions: A black 96-well plate with black bottom was charged with solutions of fluorophore-releasing reduction-triggered probes that are compounds of the invention (P1, P2, P3, P4 and P5) or that are not compounds of the invention and reveal the performance of prior art systems (X19) (80 μL; 25 μM in aq. TE buffer (pH 7.4) and 1.25% vol DMSO). Solutions of challenge species chosen from the monothiol glutathione (GSH, 0.1-50 mM) and the dithiol reductant dithiothreitol (DTT, 0.1-50 mM) or phosphine reductant tris-(2-carboxyethyl) phosphine (TCEP); (20 μL; 1 mM in aq. TE buffer (pH 7.4) were added and the reaction mixtures were incubated at 37° C. for 6 h while measuring fluorescence intensity over time [F(t)] using a BMG Labtech FLUOstar Omega platereader (λexc=355 nm, Δem=530 nm for PQ-OH-releasing probes X19, P1 and P2; Δexc=485 nm, Δem=530 nm for MF-OH-releasing probes P3 and P4.
Data Representation: F^max is the maximum possible fluorescence increase corresponding to complete reduction-triggered cargo release, i.e. the fluorescence intensity increase from time zero to signal plateau under TCEP incubation PQ-OH-releasing probes. F(t)/F^max(t) thus gives the timecourse measurements of fluorescence intensity, as a fraction of the maximum possible fluorescence signal. F^sat is the endpoint fluorescence intensity increase for each condition, ie. F^sat=(F(6 h)). F^sat/F^max thus gives the assay endpoint fluorescence intensity increase, as a fraction of the maximum possible fluorescence signal. In the GSH timecourse measurements shown in FIG. 1, all datasets annotated with concentrations only (0.01-10 mM) refer to GSH challenges, while datasets for TCEP positive control (100 μM) and no-reductant control (blank) are shown for comparison. The dose-response plots show F^sat/F^max for the different ratios between probe and GSH or probe and DTT concentrations, with a logarithmic horizontal scale.

[2] = target: T1, glutathione reductase (GR) (Homo sapiens, UniProt P00390); assay: Enzymatic activation assay: GR; format: biochemical; settings: NADPH/GR
T1 sequence (P00390 44-522): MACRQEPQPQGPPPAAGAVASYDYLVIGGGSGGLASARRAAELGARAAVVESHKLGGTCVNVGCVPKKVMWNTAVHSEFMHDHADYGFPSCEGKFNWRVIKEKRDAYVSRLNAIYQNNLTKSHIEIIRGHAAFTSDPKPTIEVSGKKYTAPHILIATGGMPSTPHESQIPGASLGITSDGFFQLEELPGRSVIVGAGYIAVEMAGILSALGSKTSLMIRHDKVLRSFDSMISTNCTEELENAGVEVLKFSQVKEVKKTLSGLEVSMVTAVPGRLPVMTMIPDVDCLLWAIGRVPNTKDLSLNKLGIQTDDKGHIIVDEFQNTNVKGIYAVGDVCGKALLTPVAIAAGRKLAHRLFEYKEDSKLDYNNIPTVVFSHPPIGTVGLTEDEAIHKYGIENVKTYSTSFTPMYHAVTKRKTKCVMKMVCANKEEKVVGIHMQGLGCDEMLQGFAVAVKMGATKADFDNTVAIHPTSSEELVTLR
From the text: (§1) This assay (see FIG. 2) examined the resistance of disulfide-based reduction-triggered compounds to the major cellular enzymatic systems that maintain redox homeostasis and are capable of reducing disulfides, evaluated in a cell-free assay, to see if these compounds can be useful for selective enzyme-triggered release.
(§2) Assay conditions: A black 96-well plate with black bottom was charged with solutions of fluorophore-releasing reduction-triggered probes that are compounds of the invention (P1, P2) or that are not compounds of the invention and reveal the performance of prior art systems (X19) (50 μL; 40 μM in aq. TE buffer (pH 7.4) and 4 μL DMSO). […]
(§3) Data Representation: (F(t)-F^NADPH(t)) is the fluorescence intensity of the test solution at time t, from which is subtracted a background fluorescence level also at time t from a solution with NADPH (which itself is fluorescent, and is present in 10-fold higher concentration than the probe) and with the same protein mixture but without the probe. F^max(t) is the maximum possible fluorescence intensity value at time t, determined by incubation with TCEP (100 μM)) similarly as for the chemical reductant assay. (F(t)−F^NADPH(t))/F^max(t) thus gives the timecourse of fluorescence signal, as a fraction of the maximum possible fluorescence signal. […]

[3] = target: T2, GR/GSH/Grx (glutaredoxin 2, Grx2) (Homo sapiens, UniProt Q9NS18); assay: Enzymatic activation assay: GR/GSH/Grx2; format: biochemical; settings: full mixture NADPH/GR/GSH/Grx2
T2 sequence (Q9NS18 20-164): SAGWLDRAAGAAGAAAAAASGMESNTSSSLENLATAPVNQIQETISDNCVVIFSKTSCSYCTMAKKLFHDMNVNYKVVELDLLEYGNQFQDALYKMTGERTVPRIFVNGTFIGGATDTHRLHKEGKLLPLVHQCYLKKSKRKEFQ
From the text: as §1, §2, §3

| Structure (SMILES) | activation / cargo release by dithiol reductant DTT [1] | cargo release / processing by oxidoreductase GR [2] | cargo release / processing by GR/GSH/Grx2 [3] |
| --- | --- | --- | --- |
| O=C(Oc1ccc(Cl)cc1-c1nc2ccc(Cl)cc2c(=O)[nH]1)N1CCC[C@@H]2CSSC[C@H]21 (racemic) [Compound P1, 4-chloro-2-(6-chloro-4-oxo-3,4-dihydroquinazolin-2-yl)phenyl-(trans)-hexahydro-[1,2]dithiino[4,5-b]pyridine-1(2H)-carboxylate] | efficiently activated by dithiol-type reductants | resist | only processed by high levels of Grx1 and Grx2 |
| O=C(Oc1ccc(Cl)cc1-c1nc2ccc(Cl)cc2c(=O)[nH]1)N1CCC[C@@H]2CSSC[C@@H]21 (racemic) [Compound P2, 4-chloro-2-(6-chloro-4-oxo-3,4-dihydroquinazolin-2-yl)phenyl-(cis)-hexahydro-[1,2]dithiino[4,5-b]pyridine-1(2H)-carboxylate] | efficiently activated by dithiol-type reductants | resist | only processed by high levels of Grx1 and Grx2 |
